Here are results for two compounds from the NIST ThermoML archive (doi:10.1016/j.jct.2017.09.020).

The conditions of the data set: Liquid, Ebulliometric method (Recirculating still).

Numbers after ± are expanded uncertainties.

For `CCCCCCCCCC(=O)OC` [methyl decanoate], the vapor or sublimation pressure (as a rule, the equilibrium pressure above the liquid or solid) (389.1 K) stood at 2 ± 0.21 kPa; the “vapor or sublimation pressure” value (404.15 K) was 4 ± 0.42 kPa; the “vapor or sublimation pressure” value (413.57 K) was 6 ± 0.63 kPa.
As to `CCCCCCCCCCCC(=O)OC` [methyl dodecanoate], the “vapor or sublimation pressure” value is listed as 2 ± 0.21 kPa (417.53 K), 4 ± 0.42 kPa (433.71 K) and 6 ± 0.63 kPa (443.3 K).
